These results are taken from patent US9505745B2, “Enhancer of zeste homolog 2 inhibitors” (GlaxoSmithKline Intellectual Property (No.2) Limited, priority 2013, dated 2016).

This assay concerns the target EZH2 within the PRC2 complex (Homo sapiens (Human), UniProt Q15910). As to the kind of experiment: EZH2 methyltransferase SPA, biotinylated histone H3K27 peptide substrate (Assay Protocol 2). The assay is classed as biochemical. The note with it: 3H-SAM, ≦10 nM approaches limit of detection. On the procedure: Compounds contained herein were evaluated for their ability to inhibit the methyltransferase activity of EZH2 within the PRC2 complex. Human PRC2 complex was prepared by co-expressing each of the 5 member proteins (FLAG-EZH2, EED, SUZ12, RbAp48, AEBP2) in Sf9 cells followed by co-purification. Enzyme activity was measured in a scintillation proximity assay (SPA) where a tritiated methyl group is transferred from 3H-SAM to a lysine residue on a biotinylated, unmethylated peptide substrate derived from histone H3. The peptides were captured on streptavidin-coated SPA beads and the resulting signal was read on a ViewLux plate reader.
Part A. Compound Preparation
• 4. Prepare 10 mM stock of compounds from solid in 100% DMSO. • 5. Set up an 11-point serial dilution (1:4 dilution, top concentration 10 mM) in 100% DMSO for each test compound in a 384 well plate leaving columns 6 and 18 for DMSO controls. • 6. Dispense 10 nL of compound from the dilution plate into reaction plates (Corning, 384-well polystyrene NBS, Cat#3673). Part B. Reagent Preparation Prepare the following solutions: • 7. 1× Base Buffer, 50 mM Tris-HCl, pH 8, 2 mM MgCl2: Per 1 L of base buffer, combine 1 M Tris-HCl, pH 8 (50 mL), 1 M MgCl2 (2 mL), and distilled water (948 mL). • 8. 1× Assay Buffer: Per 10 mL of 1× Assay Buffer, combine 1× Base Buffer (9.96 mL), 1 M DTT (40 uL), and 10% Tween-20 (1 uL) to provide a final concentration of 50 mM Tris-HCl, pH 8, 2 mM MgCl2, 4 mM DTT, 0.001% Tween-20. • 9. 2× Enzyme Solution: Per 10 mL of 2× Enzyme Solution, combine 1× Assay Buffer (9.99 mL) and 3.24 uM EZH2 5 member complex (6.17 uL) to provide a final enzyme concentration of 1 nM. • 10. SPA Bead Solution: Per 1 mL of SPA Bead Solution, combine Streptavidin coated SPA beads (PerkinElmer, Cat#RPNQ0261, 40 mg) and 1× Assay Buffer (1 mL) to provide a working concentration of 40 mg/mL. • 11. 2× Substrate Solution: Per 10 mL of 2× Substrate Solution, combine 40 mg/mL SPA Bead Solution (375 uL), 1 mM biotinylated histone H3K27 peptide (200 uL), 12.5 uM 3H-SAM (240 uL; 1 mCi/mL), 1 mM cold SAM (57 uL), and 1× Assay Buffer (9.13 mL) to provide a final concentration of 0.75 mg/mL SPA Bead Solution, 10 uM biotinylated histone H3K27 peptide, 0.15 uM 3H-SAM (˜12 uCi/mL 3H-SAM), and 2.85 uM cold SAM. • 12. 2.67× Quench Solution: Per 10 mL of 2.67× Quench Solution, combine 1× Assay Buffer (9.73 mL) and 10 mM cold SAM (267 uL) to provide a final concentration of 100 uM cold SAM. Part C. Assay Reaction in 384-well Grenier Bio-One Plates Compound Addition • 3. Stamp 10 nL/well of 1000× Compound to test wells (as noted above). • 4. Stamp 10 nL/well of 100% DMSO to columns 6 & 18 (high and low controls, respectively). Assay • 10. Dispense 5 uL/well of 1× Assay Buffer to column 18 (low control reactions). • 11. Dispense 5 uL/well of 2× Substrate Solution to columns 1-24 (note: substrate solution should be mixed to ensure homogeneous bead suspension before dispensing into matrix reservoir). • 12. Dispense 5 uL/well of 2× Enzyme Solution to columns 1-17, 19-24. • 13. Incubate the reaction for 60 min at room temperature. Quench • 5. Dispense 6 uL/well of the 2.67× Quench Solution to columns 1-24. • 6. Seal assay plates and spin for ˜1 min at 500 rpm. • 7. Dark adapt plates in the ViewLux instrument for 15-60 min. Read plates • 2. Read the assay plates on the Viewlux Plate Reader utilizing the 613 nm emission filter or clear filter (300 s exposure). Reagent addition can be done manually or with automated liquid handler. Results
Percent inhibition was calculated relative to the DMSO control for each compound concentration and the resulting values were fit using standard IC50 fitting parameters within the ABASE data fitting software package.

Structures can show the parent of a compound that is named as a salt.

For orientation: IC50 means the point on the concentration scale where inhibition reaches its midpoint. Read a low IC50 as greater potency.

Sequence of EZH2 within the PRC2 complex (Q15910 whole entry): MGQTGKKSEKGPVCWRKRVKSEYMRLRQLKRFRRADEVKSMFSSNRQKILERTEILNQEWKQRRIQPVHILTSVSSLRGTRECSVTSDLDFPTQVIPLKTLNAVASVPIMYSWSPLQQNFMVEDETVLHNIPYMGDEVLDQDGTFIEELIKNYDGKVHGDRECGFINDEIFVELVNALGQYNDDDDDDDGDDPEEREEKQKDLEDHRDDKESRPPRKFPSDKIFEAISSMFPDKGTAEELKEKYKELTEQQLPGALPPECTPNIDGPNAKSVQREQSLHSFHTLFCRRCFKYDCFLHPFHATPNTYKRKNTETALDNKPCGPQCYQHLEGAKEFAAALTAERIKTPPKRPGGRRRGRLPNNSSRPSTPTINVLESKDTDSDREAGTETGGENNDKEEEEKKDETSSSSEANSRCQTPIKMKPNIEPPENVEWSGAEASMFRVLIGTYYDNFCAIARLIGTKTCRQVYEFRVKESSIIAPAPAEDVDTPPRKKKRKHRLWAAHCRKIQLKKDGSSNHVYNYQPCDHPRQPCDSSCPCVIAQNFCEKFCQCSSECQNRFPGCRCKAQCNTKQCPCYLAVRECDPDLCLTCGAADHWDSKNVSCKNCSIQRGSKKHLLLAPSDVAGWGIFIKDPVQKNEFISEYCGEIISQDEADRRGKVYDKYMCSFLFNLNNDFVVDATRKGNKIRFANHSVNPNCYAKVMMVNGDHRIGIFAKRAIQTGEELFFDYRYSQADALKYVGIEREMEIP
Sequence of EZH2 within the PRC2 complex (O75530 whole entry partner): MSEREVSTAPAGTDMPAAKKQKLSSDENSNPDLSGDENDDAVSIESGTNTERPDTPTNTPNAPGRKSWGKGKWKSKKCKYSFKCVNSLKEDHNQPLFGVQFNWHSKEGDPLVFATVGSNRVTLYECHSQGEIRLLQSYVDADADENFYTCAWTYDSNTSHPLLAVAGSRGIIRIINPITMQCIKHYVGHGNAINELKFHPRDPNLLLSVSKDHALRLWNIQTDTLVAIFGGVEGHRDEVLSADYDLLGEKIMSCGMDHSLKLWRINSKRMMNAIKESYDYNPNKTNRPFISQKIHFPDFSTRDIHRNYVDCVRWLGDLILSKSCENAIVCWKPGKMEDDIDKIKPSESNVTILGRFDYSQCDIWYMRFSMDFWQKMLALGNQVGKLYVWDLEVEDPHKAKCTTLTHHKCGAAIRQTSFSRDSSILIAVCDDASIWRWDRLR
Sequence of EZH2 within the PRC2 complex (Q15022 whole entry partner): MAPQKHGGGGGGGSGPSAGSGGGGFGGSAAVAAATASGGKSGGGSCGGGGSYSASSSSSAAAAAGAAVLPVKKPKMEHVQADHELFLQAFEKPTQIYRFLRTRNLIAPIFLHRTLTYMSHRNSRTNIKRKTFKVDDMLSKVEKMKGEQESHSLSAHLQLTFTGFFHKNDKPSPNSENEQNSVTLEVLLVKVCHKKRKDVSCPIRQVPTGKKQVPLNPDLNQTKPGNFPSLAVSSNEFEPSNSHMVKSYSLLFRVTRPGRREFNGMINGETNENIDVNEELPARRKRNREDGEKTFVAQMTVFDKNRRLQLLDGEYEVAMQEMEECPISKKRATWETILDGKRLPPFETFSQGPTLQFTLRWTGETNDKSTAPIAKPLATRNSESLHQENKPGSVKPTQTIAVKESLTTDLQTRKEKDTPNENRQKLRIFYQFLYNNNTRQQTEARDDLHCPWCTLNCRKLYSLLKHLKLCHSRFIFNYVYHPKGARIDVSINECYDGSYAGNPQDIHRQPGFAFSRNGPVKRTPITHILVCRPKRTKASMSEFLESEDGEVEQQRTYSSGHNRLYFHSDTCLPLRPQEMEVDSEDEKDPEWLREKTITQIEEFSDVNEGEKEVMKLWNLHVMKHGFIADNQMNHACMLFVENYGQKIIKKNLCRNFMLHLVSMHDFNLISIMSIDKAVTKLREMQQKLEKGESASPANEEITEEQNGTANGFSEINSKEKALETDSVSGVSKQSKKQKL
Sequence of EZH2 within the PRC2 complex (Q09028 whole entry partner): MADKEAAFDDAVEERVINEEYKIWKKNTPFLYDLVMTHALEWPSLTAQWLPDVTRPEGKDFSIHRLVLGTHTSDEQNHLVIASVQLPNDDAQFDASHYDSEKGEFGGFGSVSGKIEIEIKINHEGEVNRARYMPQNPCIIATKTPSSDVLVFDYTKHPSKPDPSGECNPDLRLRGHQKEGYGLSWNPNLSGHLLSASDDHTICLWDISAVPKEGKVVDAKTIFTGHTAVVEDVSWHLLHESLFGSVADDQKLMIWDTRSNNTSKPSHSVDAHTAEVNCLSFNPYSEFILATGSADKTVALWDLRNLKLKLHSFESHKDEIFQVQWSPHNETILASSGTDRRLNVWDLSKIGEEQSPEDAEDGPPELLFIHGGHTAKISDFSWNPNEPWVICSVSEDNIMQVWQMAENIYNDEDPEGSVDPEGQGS
Sequence of EZH2 within the PRC2 complex (Q6ZN18 whole entry partner): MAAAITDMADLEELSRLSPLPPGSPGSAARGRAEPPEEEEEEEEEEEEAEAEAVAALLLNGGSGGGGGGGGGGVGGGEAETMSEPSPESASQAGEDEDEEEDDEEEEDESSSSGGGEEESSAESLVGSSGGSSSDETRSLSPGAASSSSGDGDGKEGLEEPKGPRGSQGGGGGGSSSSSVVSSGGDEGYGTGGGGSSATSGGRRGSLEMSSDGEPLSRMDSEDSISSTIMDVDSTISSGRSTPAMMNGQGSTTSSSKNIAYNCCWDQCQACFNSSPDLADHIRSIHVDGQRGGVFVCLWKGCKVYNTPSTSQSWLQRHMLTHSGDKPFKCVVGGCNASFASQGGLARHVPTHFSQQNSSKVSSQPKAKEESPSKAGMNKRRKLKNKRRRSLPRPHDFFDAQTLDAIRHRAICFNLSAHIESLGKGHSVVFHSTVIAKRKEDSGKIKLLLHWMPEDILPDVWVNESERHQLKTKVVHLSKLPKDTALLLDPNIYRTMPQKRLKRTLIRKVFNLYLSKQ

On to `CCC(c1scc(C(=O)NCc2c(C)cc(C)[nH]c2=O)c1C)[C@H]1CC[C@H](N(C)C)CC1` (single isomer, unassigned; (-)) [Example 44, (−)-N-((4,6-Dimethyl-2-oxo-1,2-dihydropyridin-3-yl)methyl)-5-(1-((trans)-4-(dimethylamino)cyclohexyl)propyl)-4-methylthiophene-3-carboxamide], for which the 50% inhibitory concentration (IC50) worked out at 20 nM.

For the molecule `C=C(c1scc(C(=O)NCc2c(C)cc(C)[nH]c2=O)c1C)C1CCNCC1` [Example 49, N-((4,6-dimethyl-2-oxo-1,2-dihydropyridin-3-yl)methyl)-4-methyl-5-(1-(piperidin-4-yl)vinyl)thiophene-3-carboxamide], inhibition was half-maximal at 126 nM (IC50).

Regarding `C/C=C(/CCCN1CCN(C)CC1)c1scc(C(=O)NCc2c(C)cc(C)[nH]c2=O)c1C` [Example 72, (Z)—N-((4,6-Dimethyl-2-oxo-1,2-dihydropyridin-3-yl)methyl)-4-methyl-5-(6-(4-methylpiperazin-1-yl)hex-2-en-3-yl)thiophene-3-carboxamide], the IC50 is 251 nM.

Molecule `CCN(c1sc(Cl)c(C(=O)NCc2c(C)cc(C)[nH]c2=O)c1C)C1CCOCC1` [Example 53, 2-Chloro-N-((4,6-dimethyl-2-oxo-1,2-dihydropyridin-3-yl)methyl)-5-(ethyl(tetrahydro-2H-pyran-4-yl)amino)-4-methylthiophene-3-carboxamide] came in with an IC50 of 16 nM.

For `Cc1cc(C)c(CNC(=O)c2csc(-c3cccc4c3CCNC4)c2C)c(=O)[nH]1` [Example 70, N-((4,6-Dimethyl-2-oxo-1,2-dihydropyridin-3-yl)methyl)-4-methyl-5-(1,2,3,4-tetrahydroisoquinolin-5-yl)thiophene-3-carboxamide hydrochloride], the half-maximal inhibitory concentration (IC50) is 100 nM.

For the molecule `CCN(CC)c1sc(Br)c(C(=O)NCc2c(C)cc(C)[nH]c2=O)c1C` [Example 52, 2-Bromo-5-(diethylamino)-N-((4,6-dimethyl-2-oxo-1,2-dihydropyridin-3-yl)methyl)-4-methylthiophene-3-carboxamide], the concentration for half-maximal inhibition (IC50) was 316 nM.

Regarding `CCN(c1sc(C)c(C(=O)NCc2c(C)cc(C)[nH]c2=O)c1C)C1CCOCC1` [Example 54, N-((4,6-Dimethyl-2-oxo-1,2-dihydropyridin-3-yl)methyl)-5-(ethyl(tetrahydro-2H-pyran-4-yl)amino)-2,4-dimethylthiophene-3-carboxamide hydrochloride], the midpoint of inhibition, the IC50, lay at 32 nM.

On to `Cc1cc(C)c(CNC(=O)c2csc(C(O)[C@H]3CC[C@H](N)CC3)c2C)c(=O)[nH]1` (stereo partly drawn) [Example 37, 5-(((trans)-4-Aminocyclohexyl)(hydroxy)methyl)-N-((4,6-dimethyl-2-oxo-1,2-dihydropyridin-3-yl)methyl)-4-methylthiophene-3-carboxamide], for which the IC50 is 501 nM. Compared with the last molecule, the IC50 is about 16-fold higher.

Molecule `CCN(c1sc(-c2ccco2)c(C(=O)NCc2c(C)cc(C)[nH]c2=O)c1C)C1CCOCC1` [Example 76, N-((4,6-dimethyl-2-oxo-1,2-dihydropyridin-3-yl)methyl)-5-(ethyl(tetrahydro-2H-pyran-4-yl)amino)-2-(furan-2-yl)-4-methylthiophene-3-carboxamide] displayed a concentration for half-maximal inhibition (IC50) of 32 nM.

In the case of `CCN(c1sc(N2CCN(C)CC2)c(C(=O)NCc2c(C)cc(C)[nH]c2=O)c1C)C1CCOCC1` [Example 56, N-((4,6-Dimethyl-2-oxo-1,2-dihydropyridin-3-yl)methyl)-5-(ethyl(tetrahydro-2H-pyran-4-yl)amino)-4-methyl-2-(4-methylpiperazin-1-yl)thiophene-3-carboxamide hydrochloride], the IC50 came out at 501 nM.

In turn, `CCN(c1sc(C2=CCN(C)CC2)c(C(=O)NCc2c(C)cc(C)[nH]c2=O)c1C)C1CCOCC1` [Example 61, N-((4,6-Dimethyl-2-oxo-1,2-dihydropyridin-3-yl)methyl)-5-(ethyl(tetrahydro-2H-pyran-4-yl)amino)-4-methyl-2-(1-methyl-1,2,3,6-tetrahydropyridin-4-yl)thiophene-3-carboxamide] came in with an IC50 of 501 nM. This lies in the sub-micromolar range.

Consider `CCC(=C1CCNCC1)c1scc(C(=O)NCc2c(C)cc(C)[nH]c2=O)c1C` [Example 48, N-((4,6-dimethyl-2-oxo-1,2-dihydropyridin-3-yl)methyl)-4-methyl-5-(1-(piperidin-4-ylidene)propyl)thiophene-3-carboxamide], for which the IC50 was at most 10 nM.

With `C/C=C(/CCN1CCOCC1)c1scc(C(=O)NCc2c(C)cc(C)[nH]c2=O)c1C` [Example 71, (Z)—N-((4,6-Dimethyl-2-oxo-1,2-dihydropyridin-3-yl)methyl)-4-methyl-5-(5-morpholinopent-2-en-3-yl)thiophene-3-carboxamide], the IC50 is 1000 nM.

Consider `CCC(c1scc(C(=O)NCc2c(C)cc(C)[nH]c2=O)c1C)[C@H]1CC[C@@H](N(C)C)CC1` (single isomer, unassigned; (+)) [Example 46, (+)-N-((4,6-Dimethyl-2-oxo-1,2-dihydropyridin-3-yl)methyl)-5-(1-((cis)-4-(dimethylamino)cyclohexyl)propyl)-4-methylthiophene-3-carboxamide], for which the IC50 was 316 nM.

`CCN(c1sc(-c2ccoc2)c(C(=O)NCc2c(C)cc(C)[nH]c2=O)c1C)C1CCOCC1` [Example 75, N-((4,6-dimethyl-2-oxo-1,2-dihydropyridin-3-yl)methyl)-5-(ethyl(tetrahydro-2H-pyran-4-yl)amino)-2-(furan-3-yl)-4-methylthiophene-3-carboxamide]: it took 25 nM to reach half-maximal inhibition (IC50). This IC50 lies about 13-fold lower than the previous one.

As to `C/C=C(/c1scc(C(=O)NCc2c(C)cc(C)[nH]c2=O)c1C)C1CCNCC1` [Example 33, (E)-N-((4,6-Dimethyl-2-oxo-1,2-dihydropyridin-3-yl)methyl)-4-methyl-5-(1-(piperidin-4-yl)prop-1-en-1-yl)thiophene-3-carboxamide], the IC50 was at most 10 nM.

With `C/C=C(/CCCN1CCC(N(C)C)CC1)c1scc(C(=O)NCc2c(C)cc(C)[nH]c2=O)c1C` [Example 74, (Z)—N-((4,6-Dimethyl-2-oxo-1,2-dihydropyridin-3-yl)methyl)-5-(6-(4-(dimethylamino)piperidin-1-yl)hex-2-en-3-yl)-4-methylthiophene-3-carboxamide formate], it took 200 nM to reach half-maximal inhibition (IC50).

In turn, `CCN(c1sc(C2CCNC2)c(C(=O)NCc2c(C)cc(C)[nH]c2=O)c1C)C1CCOCC1` (centres unmarked) [Example 58, N-((4,6-Dimethyl-2-oxo-1,2-dihydropyridin-3-yl)methyl)-5-(ethyl(tetrahydro-2H-pyran-4-yl)amino)-4-methyl-2-(pyrrolidin-3-yl)thiophene-3-carboxamide hydrochloride] registered an IC50 of 794 nM. This IC50 is about 4-fold higher than that of the molecule before.

In turn, `CCC(c1scc(C(=O)NCc2c(C)cc(C)[nH]c2=O)c1C)C1CCNCC1` (centres unmarked) [Example 40, N-((4,6-Dimethyl-2-oxo-1,2-dihydropyridin-3-yl)methyl)-4-methyl-5-(1-(piperidin-4-yl)propyl)thiophene-3-carboxamide] yielded an IC50 of 20 nM.

As for `Cc1cc(C)c(CNC(=O)c2csc(N3CCCCC3C3CCNCC3)c2C)c(=O)[nH]1` (centres unmarked) [Example 69, 5-([2,4′-Bipiperidin]-1-yl)-N-((4,6-dimethyl-2-oxo-1,2-dihydropyridin-3-yl)methyl)-4-methylthiophene-3-carboxamide hydrochloride], the IC50 is 501 nM.
